Experimental data from patent US12630589B2, “Compounds for use in viral infections” (priority 2020, dated 2026).
pEC50: −log10 of the molar value. Like-named read-outs stand apart in the source and are kept apart here.

What was measured:
[1] = system: IL-6, IL-10 and TNFα secretion; experiment: Ex vivo LPS-B5-triggered cytokine secretion in bronchoalveolar lavage cells of treated mice; design: species or system mouse
Experimental: We checked whether plitidepsin inhibits the LPS-trigged cytokine secretion in alveolar macrophages. To that end mice were injected i.v. with plitidepsin (1 mg/kg) or vehicle and 12 hours after administration bronchoalveolar lavage fluid (BAL) was collected. Cells were plated and treated ex-vivo or not with 15 μg/mL of LPS-B5 for 3 or 6 hours and secreted cytokines were measured.
Mice were randomized into groups of five animals to receive the treatments. Mice were injected intra venous (i.v.) with plitidepsin (1 mg/kg) and 12 hours after administration were euthanised. Control group received plitidepsin vehicle diluted with saline (Cremophor/Ethanol/Water). Bronchoalveolar lavage fluid (BAL) of each group was collected and centrifugated to obtain bronchoalveolar lavage cells. Cells underwent red blood cell lysis (Roche) and were plated and treated ex-vivo or not with 15 μg/mL of LPS-B5 for 3 or 6 hours. Secreted cytokines were measured using highly specific and sensitive ELISA kits. Mouse IL-6, mouse IL-10 and mouse TNF DuoSet ELISA kits were obtained from R&D Systems and performed as described by the manufacturer.

NF-κB = NF-κB transactivation luciferase assay in THP-1 cells; format: cell-based, human; conditions: THP-1 NF-κB-Luc cells, 100 nM plitidepsin, 6 hours, with poly I:C, LPS-B5 or Resiquimod
Experimental: To that end, we took advantage of THP-1 cells stably transfected with an NFκB luciferase reporter plasmid. We treated the cells with 100 ng/mL TNFα (an activator of NF-κB), 500 μg/mL poly I:C (TLR3 ligand), 10 μg/mL LPS-B5 (TLR4 ligand) or 10 g/mL Resiquimod (TLR-7/8 ligand). The compounds were used either alone (FIG. 1A grey bars) or combined with 100 nM of plitidepsin (FIG. 1A black bars) for 6 hours, and quantified the luciferase activity under each condition.
NF-κB transactivation was assayed using the Bright-Glo™ Luciferase Assay System following the manufacturer's instructions. The NF-κB reporter (Luc)-THP-1 human monocytic, cells stably transfected with NF-κB-Luc plasmid (containing four NF-κB binding sites, a minimal promoter and a luciferase gene), were exposed to 100 ng/mL TNFα (positive control), 500 μg/mL poly (I:C) (Polyinosinic-polycytidylic), 10 μg/mL LPS-B5 (Lipopolysaccharide from Escherichia coli 055:B5) or 10 g/mL Resiquimod. The compounds were used either alone or combined with 100 nM plitidepsin for 6 hours. Luminescence was measured in a Perkin-Elmer EnVision reader. A MTT (3-(4,5-dimethylthiazol-2-yl)-2,5-diphenyltetrazolium bromide) cell proliferation assay was simultaneously performed to control the cytotoxicity of the compounds. Cell survival was expressed as percentage of control cell growth. […]

THP-1 cells = experiment: Cell viability after plitidepsin pre-treatment and Resiquimod stimulus; format: cell-based, human; conditions: 1, 10 or 50 nM, Resiquimod 2.5 or 5 μg/mL, 24 hours
Experimental: (§1) In a further in vitro experiment, the effect of plitidepsin (APL) pre-treatment on THP-1 cells was studied. Using a THP-1 NFκB luc line, 1, 10 or 50 nM of APL or DMSO (0.2%) was added 8 hours before stimulus with Resiquimod (RQ) at 2.5 or 5 μg/mL. RQ is a TLR7/8 agonist and mimics ssRNA. At 24 hours the level of cytokines or cell viability was measured.

TNFα = experiment: Resiquimod-triggered TNFα secretion in BALF of mice; format: in vivo; conditions: mice 1 mg/kg i.v. 1 hour before 50 μg/mouse intranasal RQ; 1 or 3 hours
alveolar macrophages = experiment: Alveolar macrophage recruitment in mice (LPS inflammation model, flow cytometry); conditions: for macrophages in bronchoalveolar lavage: single iv administration
From the text: Also we checked the effect of plitidepsin on alveolar macrophage recruitment. Viral infection also leads to the activation of macrophages. Activated macrophages are twice the size of resting macrophages and are more “aggressive”, having increased levels of lysosomal proteins and a greater ability to phagocytose. Classically activated macrophages also release proteases, neutrophil chemotactic factors, reactive oxygen species and pro-inflammatory cytokines (such as IL-1 beta/IL-1F2, IL-6, and TNF-alpha/TNFSF1A), leading to inflammation and tissue destruction. Bronchoalveolar lavage cells were stained and analyced by flow cytometry.
To investigate whether plitidepsin decreases the percentage of alveolar macrophage in animals with acute inflammation, we treated mice with plitidepsin (1 mg/kg) i.v., with LPS (20 μg/kg) i.p. in sterile saline or with plitidepsin (1 mg/kg; i.v.) in combination with LPS (20 μg/kg, i.p.). Three hours later, bronchoalveolar lavages were collected. Bronchoalveolar lavage cells were obtained by centrifugation and analyzed by flow cytometry (FIG. 4b). Upper panels show the strategy of analysis of macrophage population present in the samples. Lower right panel show the same result expressed as percentage of cells. Lower left panel show the percentage of CD45+(leucocyte marker) alive cells.
Bronchoalveolar lavage cells were obtained by centrifugation and analyzed by flow cytometry.
Bronchoalveolar lavage cells were stained with anti-F4/80-BV510, CD45-APC700, CD11b-BV650, CD11c-APC-Fire, CD24-PC7 and Ly6C-BV605 monoclonal antibodies (Biolegend) and a LIVE/DEAD™ Fixable Green Dead Cell Stain Kit, for 488 nm excitation (Thermofisher). Macrophages (F4/80+) were gated on alive immune cells (CD45+ LIVE/DEAD dye−), while alveolar macrophages (F4/80+CD24−) were specifically gated on CD11c+CD11b− population from alive immune cells. Isotype controls and compensation beads were used to set compensations and gating strategies.

[2] = system: WNV-GFP (lineage 2; molecular clone WN956)
[3] = system: WNV-GFP (lineage 2; molecular clone WN956); experiment: WNV-GFP infection efficiency in Huh7 cells; format: cell-based, West Nile virus
WNV-NY99 (lineage 1) [4] = experiment: Intracellular WNV RNA load by RT-qPCR, Huh-7 cells; format: cell-based, West Nile virus; conditions: 48 hours
VeroE6 cells = experiment: Cell biomass (DAPI) in VeroE6 cells; format: cell-based, African green monkey; conditions: 48 hours
Experimental: (§2) Relative infection efficiency was assessed by automated fluorescence microscopy in the green channel and overall cell biomass/well was estimated by nuclear staining with DAPI in the blue channel, as a preliminary assessment of the compound effective doses as well as overall compound cytotoxicity.
(§3) Infection experiments: Cells were seeded onto 96-well plates (2×10^4 cells/well). The day after, serial 5-fold dilutions of plitidepsin were prepared in 2% FCS-containing complete media to achieve the indicated final concentrations. WNV-GFP stock was diluted in complete media containing 2% FCS to achieve the required multiplicity of infection (MOI 0.01). Compound and virus dilutions were mixed 1:1 and added onto the target cells. Cells were incubated for 48 hours at 37° C.; 5% CO2 and 95% humidity.
(§4) Cells were fixed by addition of a 5× formaldehyde solution to achieve a 4% final concentration for 30 mins at room temperature. Cells were washed with PBS and stained with DAPI (4′,6-diamidino-2-phenylindole) following manufacturer's recommendations. Relative infection efficiency was estimated by image analysis in an automated microscopy device (Tecan Spark Cyto). Uninfected cells and vehicle-treated controls were included in each plate.

[5] = system: THP-1 human monocytic cells; experiment: MTT cell proliferation assay (compound-induced cytotoxicity); conditions: activators combined with 100 nM plitidepsin, 6 hours
Experimental: To that end, we took advantage of THP-1 cells stably transfected with an NFκB luciferase reporter plasmid. We treated the cells with 100 ng/mL TNFα (an activator of NF-κB), 500 μg/mL poly I:C (TLR3 ligand), 10 μg/mL LPS-B5 (TLR4 ligand) or 10 g/mL Resiquimod (TLR-7/8 ligand). The compounds were used either alone (FIG. 1A grey bars) or combined with 100 nM of plitidepsin (FIG. 1A black bars) for 6 hours, and quantified the luciferase activity under each condition. […] Survival was analysed with the MTT assay (FIG. 1B grey bars (activators) and red bars (activators combined with 100 nM of plitidepsin)).
NF-κB transactivation was assayed using the Bright-Glo™ Luciferase Assay System following the manufacturer's instructions. […] Luminescence was measured in a Perkin-Elmer EnVision reader. […] Cell survival was expressed as percentage of control cell growth. […]
Cells were seeded in 96 well microtiter plates and allowed to stand for 24 hours at 37° C. and 5% CO2 before treatment described above. After 6 hours of continuous treatment, cellular viability was estimated from conversion of MTT to its coloured reaction product, MTT formazan, which was dissolved to measure its absorbance at 540 nm. […]

[6] = system: IL6, IL8, IL1β and TNF-α secretion; experiment: Plitidepsin pre-treatment of THP-1 cells before Resiquimod stimulus, cytokine secretion; format: cell-based, human; conditions: 1, 10 or 50 nM added 8 hours before Resiquimod 2.5 or 5 μg/mL; read at 24 hours
Experimental: as §1

[7] = Plasma pharmacokinetics in mouse (Table 1); format: in vivo; conditions: Mouse (F) C57BL6/J, 1.0 mg/kg single intravenous bolus
[8] = system: IL-1, IL-6, IL-8 and TNFα secretion; experiment: ELISA assays for secreted cytokines in THP-1 cells; format: cell-based, human; conditions: 100 nM plitidepsin, 6 hours, TLR ligands
Experimental: To investigate whether plitidepsin inhibits the TLR-trigged cytokine secretion, we treated THP-1 cells with 100 ng/mL TNFα (an activator of NF-κB), 500 μg/mL poly I:C (TLR3 ligand), 10 g/mL LPS-B5 (TLR4 ligand) or 10 g/mL Resiquimod (TLR-7/8 ligand). The compounds were used either alone (grey bars) or combined with 100 nM of plitidepsin (red bars) for 6 hours. We compared the variations in cytokine secretion in the cell culture supernatants between the different treatments by ELISA assays.
THP1-NFκB-LUC cell cultures were treated as described above, and the culture medium was sampled at 6 hours post-treatment to assay for secreted cytokines by ELISA. Media samples were stored at 4° C. IL-8, IL-1β, IL-6 and TNF□ protein secretion into culture medium was quantitated using highly specific and sensitive ELISA kits. Human IL-1b, human IL-6, human IL-8 and human TNF OptEIA™ ELISA kits were obtained from BD Biosciences and performed as described by the manufacturer. The data presented are the average of three independent experiments performed in triplicate.

WNV-NY99 (lineage 1) [9] = experiment: WNV/NY99 extracellular infectivity titers, Huh-7 cells; format: cell-based, West Nile virus; conditions: 45 nM, MOI 0.01, 48 hours
Huh7 cells = experiment: Cell biomass (DAPI) in Huh7 cells; format: cell-based, human; conditions: 48 hours
Experimental: as §2, §3, §4

WNV-NY99 (lineage 1) [10] = experiment: Intracellular WNV RNA load by RT-qPCR, Vero-E6 cells; format: cell-based, West Nile virus; conditions: 48 hours
WNV-NY99 (lineage 1) [11] = experiment: WNV/NY99 extracellular infectivity titers, Vero-E6 cells; format: cell-based, West Nile virus; conditions: VeroE6 cells, 45 nM, MOI 0.01, 48 hours

Question: With “(−)-(3S,6R,7S,10R,11S,15S,17S,20S,25aS)-11-hydroxy-3-(4-methoxybenzyl)-2,6,17-trimethyl-15-(1-methylethyl)-7-[[(2R)-4-methyl-2-[methyl[[(2S)-1-(2-oxopropanoyl)pyrrolidin-2-yl]carbonyl]amino]pentanoyl]amino]-10-[(1S)-1-methylpropyl]-20-(2-methylpropyl)tetradecahydro-15H-pyrrolo[2,1-f]-[1,15,4,7,10,20]dioxatetrazacyclotricosine-1,4,8,13,16,18,21(17H)-heptone [PLD]” as the substance, how does the “production of IL-6 and TNF-α induced by LPS” value ([1]; mice 1 mg/kg i.v., BAL at 12 hours, cells treated ex vivo with 15 μg/mL LPS-B5 for 3 or 6 hours) read?
Answer: clearly inhibited the production of pro-inflammatory cytokines IL-6, and TNF-α

Question: What about the “secretion of IL-6, IL-10 and TNFα induced by LPS-B5 in CD45+ cells from broncho-alveolar lavages” value ([1]; treated animals, 3 and 6 hours) of the same substance?
Answer: significantly reduce the secretion of IL-6, IL-10 and TNFα

Question: What about the “NF-κB transactivation (production of luciferase)” value (NF-κB) of the same substance?
Answer: clearly inhibited the production of luciferase

Question: What about the “cell viability over the untreated control” value (THP-1 cells) of the same substance?
Answer: does not decrease viability over the untreated control

Question: And the “production of TNFα induced by Resiquimod in BALF” value (TNFα)?
Answer: prevented the increased production of TNFα

Question: And the “cytotoxic effects on bronchoalveolar lavage cells” value (alveolar macrophages; 1 mg/kg i.v.)?
Answer: without cytotoxic effects

Question: What about the “percentage of macrophages present on bronchoalveolar lavage” value (alveolar macrophages; plitidepsin 1 mg/kg i.v. with LPS 20 μg/kg i.p., 3 hours) of the same substance?
Answer: decrease the percentage of macrophages

Question: And the “macrophages in bronchoalveolar lavage” value (alveolar macrophages)?
Answer: reduces the number of macrophages in BAL

Question: What about the “macrophages in bronchoalveolar lavage” value (alveolar macrophages; listed as Plitidepsin) of the same substance?
Answer: decreased the percentage of macrophages

Question: What about the “concentration with antiviral activity in the absence of measurable interference with cell viability (p<0.05)” value ([2]; Vero-E6 cells) of the same substance?
Answer: 7.2 nM

Question: What about the “therapeutic index (ratio CC50/EC50)” value ([2]; VeroE6 cells) of the same substance?
Answer: 475

Question: And the “concentration at which infection efficiency reaches background fluorescence levels” value ([2]; VeroE6 cells, 48 hours)?
Answer: ≥ 36 nM

Question: What about the pEC50 ([2]; read-out: EC50, WNV-GFP infection efficiency, VeroE6 cells, MOI 0.01, 48 hours) of the same substance?
Answer: 8.31

Question: And the EC90 ([2]; read-out: EC90, WNV-GFP infection efficiency, VeroE6 cells, MOI 0.01, 48 hours)?
Answer: 9.5 nM

Question: And the pEC50 ([3]; Huh7 cells, MOI 0.01, 48 hours)?
Answer: 9.18

Question: What about the EC90 ([3]; Huh7 cells, MOI 0.01, 48 hours) of the same substance?
Answer: 3.86 nM

Question: And the “concentration with antiviral activity in the absence of measurable interference with cell viability (p<0.05)” value ([3]; Huh-7 cells)?
Answer: 1.5 nM

Question: What about the “intracellular viral RNA load” value (WNV-NY99 (lineage 1) [4]; 15 nM) of the same substance?
Answer: marked reduction in viral load

Question: And the “RNA recovery from cells” value (WNV-NY99 (lineage 1) [4]; 45 nM)?
Answer: no RNA could be recovered

Question: What about the “concentration at which cell number significantly decreased (p<0.05)” value (VeroE6 cells) of the same substance?
Answer: 180 nM

Question: And the “concentration up to which cell number remained unchanged” value (VeroE6 cells)?
Answer: up to 36 nM

Question: And the CC50 (VeroE6 cells; read-out: CC50 based on the cell biomass)?
Answer: 2330 nM

Question: What about the “cytotoxic effect (survival, MTT assay)” value [5] of the same substance?
Answer: No cytotoxic effect was detected

Question: And the “secretion of IL6, IL8, IL1β and TNF-α induced by RQ” value [6]?
Answer: inhibited secretion of the pro-inflammatory cytokines: IL6, IL8, IL1β and TNF-α

Question: And the Cl [7]?
Answer: 73.3 mL/min/kg

Question: And the “production of IL-1, IL-6, IL-8 and TNFα (ELISA)” value [8]?
Answer: clearly inhibited the production of IL-1, IL-6, IL-8 and TNFα

Question: And the “reduction of extracellular infectivity titers” value (WNV-NY99 (lineage 1) [9])?
Answer: > 3 orders of magnitude

Question: What about the CC50 (Huh7 cells) of the same substance?
Answer: 14.7 nM

Question: What about the “concentration at which loss of cell biomass is statistically significant (p<0.05)” value (Huh7 cells) of the same substance?
Answer: 7.2 nM

Question: What about the “intracellular viral RNA load” value (WNV-NY99 (lineage 1) [10]; 5 and 1.5 nM) of the same substance?
Answer: not distinguishable from those in the control

Question: What about the “intracellular viral RNA load” value (WNV-NY99 (lineage 1) [10]; 15 and 45 nM) of the same substance?
Answer: significantly decreased in a dose-dependent manner

Question: And the “reduction of extracellular infectivity titers” value (WNV-NY99 (lineage 1) [11])?
Answer: > 3 orders of magnitude
